Data published in ChEMBL document CHEMBL3739370, “Synthesis and evaluation of amide, sulfonamide and urea benzisoxazole derivatives as potential atypical antipsychotics” (Medchemcomm, 2015).

Key:
[1] = molecular target: T1, 5-hydroxytryptamine receptor 1A (Rattus norvegicus, UniProt P19327); test: Displacement of [3H]8-OH-DPAT from 5HT1A receptor in rat brain cortex; assay type: tissue-based
T1 sequence (P19327 whole entry): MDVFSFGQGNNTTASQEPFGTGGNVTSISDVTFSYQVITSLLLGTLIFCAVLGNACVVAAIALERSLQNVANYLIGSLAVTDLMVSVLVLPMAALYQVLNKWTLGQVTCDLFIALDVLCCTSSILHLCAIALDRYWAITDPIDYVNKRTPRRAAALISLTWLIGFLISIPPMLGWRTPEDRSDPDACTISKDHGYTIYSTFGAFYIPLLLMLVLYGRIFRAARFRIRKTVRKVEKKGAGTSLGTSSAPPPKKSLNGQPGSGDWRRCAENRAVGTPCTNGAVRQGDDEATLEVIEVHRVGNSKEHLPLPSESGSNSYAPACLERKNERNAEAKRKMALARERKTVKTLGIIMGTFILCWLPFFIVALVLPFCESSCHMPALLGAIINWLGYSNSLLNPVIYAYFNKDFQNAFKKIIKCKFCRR

[2] = molecular target: 5-hydroxytryptamine receptor 2A (Rattus norvegicus, UniProt P14842); test: Displacement of [3H]ketanserin from 5HT2A receptor in rat brain cortex; assay type: tissue-based
Chain of 5-hydroxytryptamine receptor 2A (P14842 whole entry): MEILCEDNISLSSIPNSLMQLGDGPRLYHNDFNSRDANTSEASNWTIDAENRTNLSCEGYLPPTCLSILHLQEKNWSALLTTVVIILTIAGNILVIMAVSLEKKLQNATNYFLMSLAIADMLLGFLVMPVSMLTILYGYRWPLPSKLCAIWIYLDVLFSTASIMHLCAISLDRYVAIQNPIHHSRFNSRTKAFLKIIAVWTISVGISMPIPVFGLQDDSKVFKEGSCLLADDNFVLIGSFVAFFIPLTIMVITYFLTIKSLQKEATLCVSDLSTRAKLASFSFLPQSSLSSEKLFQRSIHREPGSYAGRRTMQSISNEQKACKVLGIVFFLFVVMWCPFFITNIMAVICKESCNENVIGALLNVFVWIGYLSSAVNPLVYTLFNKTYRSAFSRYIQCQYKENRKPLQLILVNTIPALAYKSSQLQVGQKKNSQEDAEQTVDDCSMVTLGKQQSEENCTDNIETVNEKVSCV

D(2) dopamine receptor = D(2) dopamine receptor (Rattus norvegicus, UniProt P61169); test: Displacement of [3H]spiperone from dopamine D2 receptor in rat striatum
Chain of D(2) dopamine receptor (P61169 whole entry): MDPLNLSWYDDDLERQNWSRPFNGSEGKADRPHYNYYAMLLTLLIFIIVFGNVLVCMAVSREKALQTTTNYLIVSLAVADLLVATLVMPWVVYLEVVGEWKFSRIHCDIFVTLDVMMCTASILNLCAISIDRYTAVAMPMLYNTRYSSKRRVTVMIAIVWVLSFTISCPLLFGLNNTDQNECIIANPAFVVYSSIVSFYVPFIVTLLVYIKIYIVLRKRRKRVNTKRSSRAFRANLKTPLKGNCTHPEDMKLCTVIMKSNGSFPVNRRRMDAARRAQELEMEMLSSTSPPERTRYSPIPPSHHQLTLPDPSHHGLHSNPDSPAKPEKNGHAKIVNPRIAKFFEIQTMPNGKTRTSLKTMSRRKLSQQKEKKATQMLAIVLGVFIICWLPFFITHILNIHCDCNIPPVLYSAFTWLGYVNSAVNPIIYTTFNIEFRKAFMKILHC

Mus musculus [3] = test: Antipsychotic activity in po dosed mouse assessed as reversal of DOI-induced head twitch activity; assay type: functional
Mus musculus [4] = test: Toxicity in po dosed mouse assessed as catalepsy; assay type: organism-based; details: in vivo
Mus musculus [5] = test: Antipsychotic activity in po dosed mouse assessed as reversal of apomorphine-induced climbing activity; assay type: functional
Mus musculus [6] = test: Antipsychotic activity in po dosed mouse assessed as reversal of MK-801-induced hyperactivity; assay type: functional
Mus musculus [7] = test: Selectivity ratio of ED50 for po dosed mouse assessed as catalepsy to ED50 for po dosed mouse assessed as reversal of apomorphine-induced climbing activity
Mus musculus [8] = test: Selectivity ratio of ED50 for po dosed mouse assessed as catalepsy to ED50 for po dosed mouse assessed as reversal of MK-801-induced hyperactivity

SMILES | Ki [1] | Ki [2] | Ki (D(2) dopamine receptor) | also measured
O=[N+]([O-])c1ccc(S(=O)(=O)N2CCCC(CN3CCC(c4noc5cc(F)ccc45)CC3)C2)cc1 (stereo not drawn) | 990 nM | 30.1 nM | 1100 nM | –
O=C(C1CC1)N1CCC(CN2CCC(c3noc4cc(F)ccc34)CC2)CC1 | > 10000 nM | 216 nM | > 10000 nM | –
O=C(/C=C/c1ccccc1)N1CCC(CN2CCC(c3noc4cc(F)ccc34)CC2)CC1 | > 10000 nM | 2110 nM | > 10000 nM | –
Cc1ccc(S(=O)(=O)N2CCC(CN3CCC(c4noc5cc(F)ccc45)CC3)CC2)cc1 | > 10000 nM | 1520 nM | 1290 nM | –
O=[N+]([O-])c1cccc(S(=O)(=O)N2CCC(CN3CCC(c4noc5cc(F)ccc45)CC3)CC2)c1 | 917 nM | 135 nM | 759 nM | –
O=C(NCc1ccccc1)N1CCC(CN2CCC(c3noc4cc(F)ccc34)CC2)CC1 | > 10000 nM | 265 nM | 1270 nM | –
Cc1nc2n(c(=O)c1CCN1CCC(c3noc4cc(F)ccc34)CC1)CCCC2 [RISPERIDONE] | – | – | – | ED50 (Mus musculus [3]): 0.038 mg/kg; ED50 (Mus musculus [4]): 0.38 mg/kg; ED50 (Mus musculus [5]): 0.012 mg/kg; ED50 (Mus musculus [6]): 0.013 mg/kg
CCN(C)C(=O)N1CCC(CN2CCC(c3noc4cc(F)ccc34)CC2)CC1 | > 10000 nM | 1100 nM | > 10000 nM | –
COc1ccc(C(=O)N2CCC(CN3CCC(c4noc5cc(F)ccc45)CC3)CC2)cc1 | 2500 nM | 121 nM | 1190 nM | –
O=[N+]([O-])c1ccc(S(=O)(=O)N2CCC(CCN3CCC(c4noc5cc(F)ccc45)CC3)CC2)cc1 | 1370 nM | 66.8 nM | > 10000 nM | –
CC(C)(C)C(=O)N1CCC(CN2CCC(c3noc4cc(F)ccc34)CC2)CC1 | > 10000 nM | 310 nM | > 10000 nM | –
CN1CCN(C2=Nc3cc(Cl)ccc3Nc3ccccc32)CC1 [CLOZAPINE] | – | – | – | ED50 (Mus musculus [4]): 55.89 mg/kg; ED50 (Mus musculus [5]): 4.52 mg/kg; ED50 (Mus musculus [6]): 2.11 mg/kg
O=S(=O)(c1ccc2ccccc2c1)N1CCC(CN2CCC(c3noc4cc(F)ccc34)CC2)CC1 | 1200 nM | 32.6 nM | 1380 nM | –
O=[N+]([O-])c1ccccc1S(=O)(=O)N1CCC(CN2CCC(c3noc4cc(F)ccc34)CC2)CC1 | 1010 nM | 26.9 nM | 590 nM | –
O=S(=O)(c1ccccc1)N1CCC(CN2CCC(c3noc4cc(F)ccc34)CC2)CC1 | > 10000 nM | > 10000 nM | 2500 nM | –
O=C(CCCN1CCC(O)(c2ccc(Cl)cc2)CC1)c1ccc(F)cc1 [HALOPERIDOL] | – | – | – | Ratio ED50 (Mus musculus [7]): 2.8; ED50 (Mus musculus [4]): 0.47 mg/kg; Ratio ED50 (Mus musculus [8]): 3.4; ED50 (Mus musculus [5]): 0.17 mg/kg; ED50 (Mus musculus [6]): 0.14 mg/kg
CN(C)C(=O)N1CCC(CN2CCC(c3noc4cc(F)ccc34)CC2)CC1 | > 10000 nM | 569 nM | > 10000 nM | –

Second part, led by results:

Ki [1] | Ki [2] | Ki (D(2) dopamine receptor) | SMILES | also measured
276 nM | 26.9 nM | 178 nM | Cc1ccc(NC(=O)N2CCC(CN3CCC(c4noc5cc(F)ccc45)CC3)CC2)cc1 | –
479 nM | 113 nM | 190 nM | N#Cc1ccc(S(=O)(=O)N2CCC(CN3CCC(c4noc5cc(F)ccc45)CC3)CC2)cc1 | –
599 nM | 114 nM | 1270 nM | O=C(c1ccccc1)N1CCC(CN2CCC(c3noc4cc(F)ccc34)CC2)CC1 | –
157 nM | 19 nM | 86.8 nM | O=C(c1ccc(F)cc1)N1CCC(CN2CCC(c3noc4cc(F)ccc34)CC2)CC1 | –
165 nM | 455 nM | 1290 nM | O=S(=O)(c1cccs1)N1CCC(CN2CCC(c3noc4cc(F)ccc34)CC2)CC1 | –
269 nM | 71.8 nM | 195 nM | O=C(c1ccc([N+](=O)[O-])cc1)N1CCC(CN2CCC(c3noc4cc(F)ccc34)CC2)CC1 | –
299 nM | 6.8 nM | 85.6 nM | O=C(Nc1ccc(Cl)cc1)N1CCC(CN2CCC(c3noc4cc(F)ccc34)CC2)CC1 | –
789 nM | 368 nM | 211 nM | O=S(=O)(c1ccc(F)cc1)N1CCC(CN2CCC(c3noc4cc(F)ccc34)CC2)CC1 | –
